Results published in US20210363124A1, “HETEROCYCLYL POLYMETHINE IR CHROMOPHORES” (The Regents of the University of California, priority 2018, published 2021).
Entries after “also recorded” stand apart in the source; their conditions may differ. Values belong to the molecule of their own block, whether it stands above or below them.

How the values were obtained:
Format in all cases: physicochemical
[1] = Emission spectra and absolute fluorescence quantum yield in dichloromethane (integrating sphere)
Procedure: (§1) The absorption, emission, and photostability properties of flavylium dyes 3-6 were measured.
Finally, the photoluminescence of Flav7 was compared to the prominent SWIR polymethine dyes, IR-26 and IR-1061. IR-26 has been widely-employed as a standard for this region, while IR-1061 has recently been the active component of nanomaterials for NIR-II in vivo imaging. Despite numerous studies which rely on these dyes, the reported ΦF for IR-26 have been inconsistent, and the ΦF of IR-1061 has yet to be thoroughly characterized. Consequently, to establish that Flav7 is more emissive than existing SWIR polymethine dyes, each dye's emission was directly compared using a SWIR camera. We prepared solutions of 3, IR-26, and IR-1061 in dichloromethane with identical absorbance at 808 nm, excited with a diffuse 808 nm laser, and imaged their emission over 1000-1500 nm.
(§2) The absorbance spectra in FIG. 2 and FIGS. 4A-4G were obtained in DCM on a JASCO V-770 UV-Visible/NIR spectrophotometer with a 2000 nm/min or 4000 nm/min scan rate. Plotted are the baseline corrected and normalized data. The emission spectra in FIG. 2 were taken in DCM on either a Horiba Instruments PTI QuantaMaster Series fluorometer (6), a Fluoromax-3 spectrofluorometer (1, 3-5), or home-built InGaAs array detector (Princeton Instruments). For 6 the following parameters were used: ex. 610 nm, emission collected from 620-900 nm, slits 5 nm, step size 1 nm, integration time 1 s. Plotted is the DCM corrected, baseline corrected, normalized data. For 1, and 3-5, the following parameters were used: slits 5 nm, step size 1 nm, integration time, 0.25 s. […]
(§3) Polymethine dyes disclosed herein are characterized with respect to their photophysics including absorption, emission, extinction coefficient, quantum yields, and fluorescence lifetime. All quantum yields values obtained are absolute quantum yields values measured using an integrating sphere. Photostabilities are evaluated by sample irradiation with high powered LEDs. Additionally, solvatochromism, solvent compatibility, and stability are assessed.

[2] = Photobleaching under continuous-wave irradiation (532 nm, 0.53 fluence); details: for photostability (in words): dichloromethane, 532 nm irradiation
Procedure: Photostabilities of the Flav series were measured under continuous-wave irradiation (532 nm, 0.53 fluence).
as §3

[3] = Absorption spectra of flavylium dyes in dichloromethane (UV-Visible/NIR spectrophotometer)
Procedure: as §1, §2, §3

emission (DCM) λmax ([1]; dichloromethane): 1081 nm | ΦF ([1]; dichloromethane, absolute quantum yield): 0.32±0.04%
SMILES: ClC1=C(/C=C/c2cc(-c3ccccc3)[s+]c(-c3ccccc3)c2)CCC/C1=C/C=C1C=C(c2ccccc2)SC(c2ccccc2)=C1.F[B-](F)(F)F [IR-1061]

SMILES: CN(C)c1ccc2c(c1)OC(c1ccccc1)=C/C2=C\C=C\c1cc(-c2ccccc2)[o+]c2cc(N(C)C)ccc12.[O-][Cl+3]([O-])([O-])[O-] [Dye 5, 7-(Dimethylamino)-4-((E)-3-((E)-7-(dimethylamino)-2-phenyl-4H-chromen-4-ylidene)prop-1-en-1-yl)-2-phenylchromenylium perchlorate]
photostability (in words) [2]: excellent photostabilities | photostability relative to HITCI ([2]; more photostable than HITCI): 4 fold

photostability (in words) [2]: excellent photostabilities
SMILES: CN(C)c1ccc2c(c1)OC(c1ccccc1)=C/C2=C\c1cc(-c2ccccc2)[o+]c2cc(N(C)C)ccc12.O=C([O-])C(F)(F)F [Dye 6, (E)-7-(Dimethylamino)-4-((7-(dimethylamino)-2-phenyl-4H-chromen-4-ylidene)methyl)-2-phenylchromenylium 2,2,2-trifluoroacetate]

SMILES: CN(C)c1ccc2c(c1)OC(c1ccccc1)=C\C2=C/C=C/C=C/c1cc(-c2ccccc2)[o+]c2cc(N(C)C)ccc12.[O-][Cl+3]([O-])([O-])[O-] [Dye 4, 7-(dimethylamino)-4-((1E,3E)-5-((E)-7-(dimethylamino)-2-phenyl-4H-chromen-4-ylidene)penta-1,3-dien-1-yl)-2-phenylchromenylium perchlorate]
photostability (in words) ([2]; listed as Flav5): excellent photostabilities; also recorded: desirable photostability

ΦF relative to Flav3 ([1]; higher ΦF than Flav3): ~10 fold | absorption (DCM) λmax [3]: ~745 nm | absorption (DCM) ε ([3]; at λmax): ~220,000 M^−1cm^−1
SMILES: CN1C(=CC=CC=CC=CC2=[N+](C)c3ccccc3C2(C)C)C(C)(C)c2ccccc21.[I-] [HITCI, 1,1′,3,3,3′,3′-hexamethylindotricarbocyanine iodide]
